Test results taken from ChEMBL document CHEMBL1201862, “PubChem BioAssay data set” (2004).
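1) Cells in 96-well plates. 2) Compound, 48 h, 5 concentrations. 3) Linear interpolation between surrounding doses. 4) Unreached endpoint = highest concentration. GI50 is the concentration that inhibits growth by half.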 Activity calls are given as the source filed them. Rule as the data show it: active = GI50 up to about 1.1 µM and inactive = higher. Non-standard residues stand in square brackets, D forms with d. Residues, ends and D or L forms follow the SMILES beside them. ξ: configuration not given here. *: point of attachment. NMeF = CN[C@@H](Cc1ccccc1)C(=O)O; NMeN = CN[C@@H](CC(N)=O)C(=O)O; NMeV = CN[C@H](C(=O)O)C(C)C; ξNMeV = CNC(C(=O)O)C(C)C; Boc = CC(C)(C)OC(=O)*; ξNMeA = CNC(C)C(=O)O; ξV = CC(C)C(N)C(=O)O

Assays:
Test in all cases: inhibition of tumour cell growth, NCI panel, 48 h
RPMI-8226 = test system: RPMI-8226
SN12C = test system: SN12C
NCI-H460 = test system: NCI-H460
RXF 393 = test system: RXF 393
SNB-75 = test system: SNB-75
SK-OV-3 = test system: SK-OV-3
A498 = test system: A498
HOP-62 = test system: HOP-62
SF-539 = test system: SF-539
NCI-H226 = test system: NCI-H226
SNB-78 = test system: SNB-78
NCI-H522 = test system: NCI-H522
LXFL 529 = test system: LXFL 529
HL-60 = test system: HL-60
HT-29 = test system: HT-29
OVCAR-8 = test system: OVCAR-8
SR = test system: SR
U-251 = test system: U-251
HCT-15 = test system: HCT-15
Malme-3M = test system: Malme-3M
COLO 205 = test system: COLO 205
786-0 = test system: 786-0
ACHN = test system: ACHN
SF-268 = test system: SF-268
XF498 = test system: XF498
M14 = test system: M14
NCI-H23 = test system: NCI-H23
SW-620 = test system: SW-620
KM12 = test system: KM12
UACC-62 = test system: UACC-62
MOLT-4 = test system: MOLT-4
OVCAR-4 = test system: OVCAR-4
DMS-114 = test system: DMS-114
OVCAR-3 = test system: OVCAR-3
CAKI-1 = test system: CAKI-1
UACC-257 = test system: UACC-257
DMS-273 = test system: DMS-273
A549 = test system: A549
LOX IMVI = test system: LOX IMVI
OVCAR-5 = test system: OVCAR-5
UO-31 = test system: UO-31
CCRF-CEM = test system: CCRF-CEM
EKVX = test system: EKVX
SK-MEL-28 = test system: SK-MEL-28
K562 = test system: K562
SF-295 = test system: SF-295
M19-MEL = test system: M19-MEL
HCT-116 = test system: HCT-116
SNB-19 = test system: SNB-19
SK-MEL-2 = test system: SK-MEL-2
SK-MEL-5 = test system: SK-MEL-5
KM-20L2 = test system: KM-20L2
MDA-MB-231 = test system: MDA-MB-231
BT-549 = test system: BT-549
HOP-92 = test system: HOP-92
MCF7 = test system: MCF7
DU-145 = test system: DU-145
TK-10 = test system: TK-10
PC-3 = test system: PC-3
MDA-MB-435 = test system: MDA-MB-435
Hs-578T = test system: Hs-578T
IGROV-1 = test system: IGROV-1
MDA-N = test system: MDA-N
HCC 2998 = test system: HCC 2998
NCI/ADR-RES = test system: NCI/ADR-RES
T47D = test system: T47D
DLD-1 = test system: DLD-1

Measured: GI50

O=[N+]([O-])c1ccc(-c2cnc3ccccn23)cc1
inactive: RPMI-8226 52.6 µM | SN12C 61.2 µM | NCI-H460 > 100 µM | RXF 393 24.2 µM | SNB-75 30.6 µM | SK-OV-3 62.5 µM | A498 > 100 µM | HOP-62 > 100 µM | SF-539 > 100 µM | NCI-H226 > 100 µM | SNB-78 > 100 µM | NCI-H522 > 100 µM | LXFL 529 > 100 µM | HL-60 44.2 µM | HT-29 > 100 µM | OVCAR-8 > 100 µM | SR 84.7 µM | U-251 > 100 µM | Malme-3M > 100 µM | COLO 205 > 100 µM | 786-0 > 100 µM | ACHN > 100 µM | SF-268 > 100 µM | XF498 > 100 µM | M14 > 100 µM | NCI-H23 > 100 µM | SW-620 > 100 µM | KM12 > 100 µM | UACC-62 > 100 µM | MOLT-4 > 100 µM | OVCAR-4 > 100 µM | DMS-114 48.6 µM | OVCAR-3 > 100 µM | CAKI-1 62.4 µM | UACC-257 > 100 µM | DMS-273 > 100 µM | A549 > 100 µM | LOX IMVI > 100 µM | OVCAR-5 > 100 µM | UO-31 > 100 µM | CCRF-CEM > 100 µM | EKVX > 100 µM | SK-MEL-28 > 100 µM | K562 > 100 µM | SF-295 > 100 µM | M19-MEL > 100 µM | HCT-116 > 100 µM | SNB-19 > 100 µM | SK-MEL-2 > 100 µM | SK-MEL-5 > 100 µM | KM-20L2 > 100 µM
> 100 µM: HCT-15

CC1=NN(C(=O)c2ccccc2O)C(=O)/C1=C/c1c(O)ccc2ccccc12
0.48 µM: HCT-15
inactive: RPMI-8226 1.46 µM | SN12C 1.22 µM | MDA-MB-231 3.97 µM | BT-549 4.7 µM | HOP-92 1.96 µM | SNB-75 2.42 µM | A498 2.44 µM | NCI-H226 1.53 µM | SNB-78 26.6 µM | LXFL 529 1.72 µM | HT-29 10.2 µM | MCF7 3.31 µM | Malme-3M 1.52 µM | COLO 205 2.9 µM | TK-10 8.87 µM | PC-3 2.03 µM | XF498 4.86 µM | NCI-H23 1.43 µM | KM12 2.78 µM | MOLT-4 1.8 µM | MDA-MB-435 4.94 µM | CAKI-1 1.32 µM | UACC-257 2.47 µM | Hs-578T 21.4 µM | A549 2.06 µM | IGROV-1 1.22 µM | OVCAR-5 4.11 µM | SK-MEL-28 1.69 µM | MDA-N 5.2 µM | K562 1.73 µM | HCC 2998 12.9 µM | NCI/ADR-RES 1.34 µM | SF-295 2.23 µM | SNB-19 3.26 µM | SK-MEL-2 1.14 µM | SK-MEL-5 1.19 µM | KM-20L2 4.59 µM | T47D 41.1 µM
active: NCI-H460 0.676 µM | RXF 393 0.787 µM | SK-OV-3 0.741 µM | HOP-62 0.944 µM | SF-539 0.804 µM | NCI-H522 0.839 µM | HL-60 0.299 µM | OVCAR-8 1.01 µM | SR 0.364 µM | U-251 0.982 µM | DU-145 0.607 µM | 786-0 0.316 µM | ACHN 0.955 µM | SF-268 0.723 µM | M14 0.587 µM | SW-620 0.863 µM | UACC-62 0.287 µM | OVCAR-4 0.468 µM | DMS-114 0.219 µM | OVCAR-3 0.201 µM | LOX IMVI 0.625 µM | UO-31 0.968 µM | CCRF-CEM 0.312 µM | EKVX 0.713 µM | M19-MEL 0.46 µM | HCT-116 0.689 µM

COC(=O)C(C)N(C)C(=O)[C@H](CC(N)=O)N(C)C(=O)[C@@H]1CCCN1C(=O)[C@H](C(C)C)N(C)C(=O)C(C(C)C)N(C)C(=O)[C@H](Cc1ccccc1)N(C)C(=O)C(NC(=O)OC(C)(C)C)C(C)C (stereo partly drawn) (Boc-[ξV][NMeF][ξNMeV][NMeV]P[NMeN][ξNMeA]-OMe)
inactive: RPMI-8226 12.4 µM | SN12C 26 µM | NCI-H460 37.2 µM | MDA-MB-231 16.3 µM | BT-549 12.1 µM | HOP-92 20.9 µM | RXF 393 12 µM | SNB-75 6.17 µM | SK-OV-3 46.2 µM | A498 44.4 µM | HOP-62 11.5 µM | SF-539 28 µM | NCI-H226 12.1 µM | SNB-78 17.9 µM | NCI-H522 17.5 µM | LXFL 529 3.13 µM | HL-60 15.6 µM | HT-29 18.3 µM | OVCAR-8 17.5 µM | MCF7 14.2 µM | SR 5.15 µM | U-251 11.2 µM | DU-145 28.8 µM | Malme-3M 17.8 µM | COLO 205 13.3 µM | 786-0 17.6 µM | ACHN > 50 µM | TK-10 21.2 µM | SF-268 13.9 µM | PC-3 16.1 µM | XF498 15.4 µM | M14 15.9 µM | NCI-H23 17.6 µM | SW-620 28.1 µM | KM12 11.2 µM | UACC-62 10.2 µM | MOLT-4 8.95 µM | MDA-MB-435 23.2 µM | OVCAR-4 > 50 µM | DMS-114 4.65 µM | OVCAR-3 12.5 µM | CAKI-1 > 50 µM | UACC-257 25.6 µM | Hs-578T 10.8 µM | DMS-273 15.1 µM | A549 > 50 µM | LOX IMVI 9.44 µM | IGROV-1 22.4 µM | OVCAR-5 > 50 µM | UO-31 37.8 µM | CCRF-CEM 24 µM | EKVX > 50 µM | SK-MEL-28 18.2 µM | MDA-N 22.6 µM | K562 16.9 µM | HCC 2998 18.8 µM | NCI/ADR-RES > 50 µM | DLD-1 17.8 µM | SF-295 12 µM | HCT-116 16.3 µM | SNB-19 19.7 µM | SK-MEL-2 9.1 µM | SK-MEL-5 17.2 µM | KM-20L2 33 µM | T47D 19.5 µM
22 µM: HCT-15
